Assay results: PMC9592870 (Molecular Diversity, 2022)

Assays:
Vero cells = conditions: CC50 Vero cells / MIC Mtb H37Rv
M. fortuitum ATCC 6841 = experiment: Antimycobacterial broth microdilution MIC, non-tuberculous mycobacteria; type: cell-based; conditions: 48 h
M. chelonae ATCC 35752 = experiment: as above; type: cell-based; conditions: 48 h

SMILES | SI selectivity index (CC50/MIC) (Vero cells) | MIC M. fortuitum ATCC 6841 (M. fortuitum ATCC 6841) | MIC M. chelonae ATCC 35752 (M. chelonae ATCC 35752)
COC(=O)c1cc(-c2cccc(NC(=O)Nc3ccc(F)cc3)c2)on1 [4j, Methyl 5-(3-(3-(4-fluorophenyl)ureido)phenyl)isoxazole-3-carboxylate] | > 200 | – | –
COC(=O)c1cc(-c2cccc(NC(=S)Nc3ccc(F)cc3F)c2)on1 [5k, Methyl 5-(3-(3-(2,4-difluorophenyl)thioureido)phenyl)isoxazole-3-carboxylate] | – | weaker inhibition | weaker inhibition
COC(=O)c1cc(-c2ccc(NC(=O)Nc3ccc(Cl)c(Cl)c3)cc2)on1 [4tb, Methyl 5-(4-(3-(3,4-dichlorophenyl)ureido)phenyl)isoxazole-3-carboxylate] | > 80 | – | –
COC(=O)c1cc(-c2cccc(NC(=O)Nc3ccc(Cl)cc3Cl)c2)on1 [4r, Methyl 5-(3-(3-(2,4-dichlorophenyl)ureido)phenyl)isoxazole-3-carboxylate] | > 50 | – | –
COC(=O)c1cc(-c2cccc(NC(=O)Nc3ccc(C(F)(F)F)cc3)c2)on1 [4n, Methyl 5-(3-(3-(4-(trifluoromethyl)phenyl)ureido)phenyl)isoxazole-3-carboxylate] | > 50 | – | –
COC(=O)c1cc(-c2cccc(NC(=O)Nc3cc(OC)ccc3OC)c2)on1 [4w, Methyl 5-(3-(3-(2,5-dimethoxyphenyl)ureido)phenyl)isoxazole-3-carboxylate] | < 20 | – | –
COC(=O)c1cc(-c2cccc(NC(=S)Nc3ccc(F)c(Cl)c3)c2)on1 [5m, Methyl 5-(3-(3-(3-chloro-4-fluorophenyl)thioureido)phenyl)isoxazole-3-carboxylate] | – | weaker inhibition | weaker inhibition
COC(=O)c1cc(-c2cccc(NC(=S)Nc3ccc(C#N)cc3)c2)on1 [5i, Methyl 5-(3-(3-(4-cyanophenyl)thioureido)phenyl)isoxazole-3-carboxylate] | – | weaker inhibition | weaker inhibition
COC(=O)c1cc(-c2cccc(NC(=S)Nc3ccc(Cl)cc3)c2)on1 [5f, Methyl 5-(3-(3-(4-chlorophenyl)thioureido)phenyl)isoxazole-3-carboxylate] | > 50 | – | –
COC(=O)c1cc(-c2cccc(NC(=O)Nc3ccccc3OC)c2)on1 [4d, Methyl 5-(3-(3-(2-methoxyphenyl)ureido)phenyl)isoxazole-3-carboxylate] | < 20 | – | –
